Results taken from patent publication US6599937B1, “Unsaturated oxyalkylene esters and uses thereof” (Beacon Laboratories, Inc., priority 1997, dated 2003).
Read-outs that look alike come from different tables or passages of the source. Values belong to the molecule of their own block, whether it stands above or below them.

Experiments:
HL-60 = test: SRB assay, inhibition of cancer cell proliferation, HL-60; assay type: cell-based, human
Method: (§1) Human promyelocytic leukemia cells (HL-60), human pancreatic carcinoma cells (PaCa-2) and human breast adenocarcinoma cells, pleural effusion cells (MCF-7) can be cultured as follows. Cells are grown in RPMI media with 10% FCS, supplemented with 2 mM glutamine and incubated at 37° C. in a humidified 5% CO2 incubator. Alternatively, cells can be grown in any other appropriate growth medium and conditions which supports the growth of the cell line under investigation. Viability can be determined by trypan blue exclusion. Cells are exposed to a test compound, cultures are harvested at various time points following treatment and stained with trypan blue. The inhibition of cell proliferation was measured in the indicated cancer cell lines using the sulforhodamine B (SRB) assay as described by Monks et al., 1991, J. Natl. Can. Inst. 83:757-766. The SRB assay is used to screen for anti-cancer drugs. […] The table provides the dosage of each compound (in mM) which inhibited fifty percent (IC50) or ninety percent (IC90) of proliferation when calculated using the Chou Analysis' Median Effective Dose equation.

CFPAC = test: SRB assay, inhibition of cancer cell proliferation, CFPAC; assay type: cell-based
Method: (§2) The inhibition of cell proliferation was measured in the indicated cancer cell lines using the sulforhodamine B (SRB) assay as described by Monks et al., 1991, J. Natl. Can. Inst. 83:757-766. The SRB assay is used to screen for anti-cancer drugs. […] The table provides the dosage of each compound (in mM) which inhibited fifty percent (IC50) or ninety percent (IC90) of proliferation when calculated using the Chou Analysis' Median Effective Dose equation.

LOX IMVI = test: SRB assay, inhibition of cancer cell proliferation, LOX IMVI; assay type: cell-based
Method: as §2

SF-295 = test: SRB assay, inhibition of cancer cell proliferation, SF-295; assay type: cell-based
Method: as §2

PC-3 = test: SRB assay, inhibition of cancer cell proliferation, PC-3; assay type: cell-based, human
Method: as §2

MCF7 = test: SRB assay, inhibition of cancer cell proliferation, MCF7; assay type: cell-based, human
Method: as §1

HT29 = test: SRB assay, inhibition of cancer cell proliferation, HT29; assay type: cell-based
Method: as §2

NCI-H522 = test: SRB assay, inhibition of cancer cell proliferation, NCI-H522; assay type: cell-based
Method: as §2

OVCAR-5 = test: SRB assay, inhibition of cancer cell proliferation, OVCAR-5; assay type: cell-based
Method: as §2

NCI-H23 = test: SRB assay, inhibition of cancer cell proliferation, NCI-H23; assay type: cell-based
Method: as §2

HL-60 cells = HL-60 cells cultured 3 days
Method: Cancer cell differentiation was evaluated in a human leukemia cell line by changes in expression of myelocytic maturation marker CD11b. The level of CD11b was measured on HL-60 cells by flow cytometry using a monoclonal antibody (MAb) against CD11b in a standard indirect immunofluorescence assay. Cells were cultured for 3 days with media or the indicated concentration of DiMeOCOMB. Cultured cells were collected by centrifugation, resuspended at 10^6 cells per 20μ RPMI+10% FCS and incubated with MAb for 30 min at […]. The cells were washed twice in cold PBS+[…] FCS and incubated with a 1:20 dilution of FITC-conjugated F(ab′)^2 fragment of rabbit anti-mouse IgG for 20-30 min at […]. in the dark. After washing the cells twice in cold PBS+10% FCS, the flow cytometry was performed.

[1] = Homo sapiens, HL-60 cell line, SRB assay, Chou Median Effective Dose equation, read-out: IC50
[2] = Homo sapiens, HL-60 cell line, SRB assay, Chou Median Effective Dose equation, read-out: IC90
[3] = CFPAC cell line, SRB assay, Chou Median Effective Dose equation, read-out: IC50
[4] = CFPAC cell line, SRB assay, Chou Median Effective Dose equation, read-out: IC90
[5] = Homo sapiens, LOX IMVI cell line, SRB assay, Chou Median Effective Dose equation, read-out: IC50
[6] = Homo sapiens, LOX IMVI cell line, SRB assay, Chou Median Effective Dose equation, read-out: IC90
[7] = Homo sapiens, SF-295 cell line, SRB assay, Chou Median Effective Dose equation, read-out: IC50
[8] = Homo sapiens, SF-295 cell line, SRB assay, Chou Median Effective Dose equation, read-out: IC90
[9] = Homo sapiens, PC-3 cell line, SRB assay, Chou Median Effective Dose equation, read-out: IC50
[10] = Homo sapiens, PC-3 cell line, SRB assay, Chou Median Effective Dose equation, read-out: IC90
[11] = Homo sapiens, MCF7 cell line, SRB assay, Chou Median Effective Dose equation, read-out: IC50
[12] = Homo sapiens, MCF7 cell line, SRB assay, Chou Median Effective Dose equation, read-out: IC90
[13] = Homo sapiens, HT-29, HT29 cell line, SRB assay, Chou Median Effective Dose equation, read-out: IC50
[14] = Homo sapiens, HT-29, HT29 cell line, SRB assay, Chou Median Effective Dose equation, read-out: IC90
[15] = Homo sapiens, NCI-H522 cell line, SRB assay, Chou Median Effective Dose equation, read-out: IC50
[16] = Homo sapiens, NCI-H522 cell line, SRB assay, Chou Median Effective Dose equation, read-out: IC90
[17] = Homo sapiens, OVCAR-5 cell line, SRB assay, Chou Median Effective Dose equation, read-out: IC50
[18] = Homo sapiens, OVCAR-5 cell line, SRB assay, Chou Median Effective Dose equation, read-out: IC90
[19] = Homo sapiens, NCI-H23 cell line, SRB assay, Chou Median Effective Dose equation, read-out: IC50
[20] = Homo sapiens, NCI-H23 cell line, SRB assay, Chou Median Effective Dose equation, read-out: IC90

- IC50 (HL-60; [1]): 443 µM
- IC90 (HL-60; [2]): > 4000 µM
- IC50 (CFPAC; [3]): 150 µM
- IC90 (CFPAC; [4]): 237 µM
- IC50 (LOX IMVI; [5]): 197 µM
- IC90 (LOX IMVI; [6]): 1910 µM
- IC50 (SF-295; [7]): 197 µM
- IC90 (SF-295; [8]): > 4000 µM
- IC50 (PC-3; [9]): 203 µM
- IC90 (PC-3; [10]): > 4000 µM
- IC50 (MCF7; [11]): 196 µM
- IC90 (MCF7; [12]): > 4000 µM
- IC50 (HT29; [13]): 349 µM
- IC90 (HT29; [14]): 492 µM
- IC50 (NCI-H522; [15]): 189 µM
- IC90 (NCI-H522; [16]): 249 µM
- IC50 (OVCAR-5; [17]): 367 µM
- IC90 (OVCAR-5; [18]): 500 µM
- IC50 (NCI-H23; [19]): 182 µM
- IC90 (NCI-H23; [20]): 249 µM
SMILES: CCCC(=O)OCOC(=O)C=Cc1ccccc1 [COMB, Cinnamoyloxymethyl Butyrate]

- IC50 (HL-60; HL-60 cell line, SRB assay, Chou Median Effective Dose equation, read-out: IC50): 203 µM
- IC90 (HL-60; HL-60 cell line, SRB assay, Chou Median Effective Dose equation, read-out: IC90): 248 µM
- IC50 (CFPAC; [3]): 308 µM
- IC90 (CFPAC; [4]): 3570 µM
- IC50 (LOX IMVI; LOX IMVI cell line, SRB assay, Chou Median Effective Dose equation, read-out: IC50): 772 µM
- IC90 (LOX IMVI; LOX IMVI cell line, SRB assay, Chou Median Effective Dose equation, read-out: IC90): 978 µM
- IC50 (SF-295; SF-295 cell line, SRB assay, Chou Median Effective Dose equation, read-out: IC50): 764 µM
- IC90 (SF-295; SF-295 cell line, SRB assay, Chou Median Effective Dose equation, read-out: IC90): 977 µM
- IC50 (PC-3; PC-3 cell line, SRB assay, Chou Median Effective Dose equation, read-out: IC50): 1440 µM
- IC90 (PC-3; PC-3 cell line, SRB assay, Chou Median Effective Dose equation, read-out: IC90): 1870 µM
- IC50 (MCF7; MCF7 cell line, SRB assay, Chou Median Effective Dose equation, read-out: IC50): 301 µM
- IC90 (MCF7; MCF7 cell line, SRB assay, Chou Median Effective Dose equation, read-out: IC90): 466 µM
- IC50 (HT29; HT29 cell line, SRB assay, Chou Median Effective Dose equation, read-out: IC50): 406 µM
- IC90 (HT29; HT29 cell line, SRB assay, Chou Median Effective Dose equation, read-out: IC90): 798 µM
- IC50 (NCI-H522; NCI-H522 cell line, SRB assay, Chou Median Effective Dose equation, read-out: IC50): 752 µM
- IC90 (NCI-H522; NCI-H522 cell line, SRB assay, Chou Median Effective Dose equation, read-out: IC90): 1370 µM
- IC50 (OVCAR-5; OVCAR-5 cell line, SRB assay, Chou Median Effective Dose equation, read-out: IC50): 1460 µM
- IC90 (OVCAR-5; OVCAR-5 cell line, SRB assay, Chou Median Effective Dose equation, read-out: IC90): 1890 µM
- IC50 (NCI-H23; NCI-H23 cell line, SRB assay, Chou Median Effective Dose equation, read-out: IC50): 785 µM
- IC90 (NCI-H23; NCI-H23 cell line, SRB assay, Chou Median Effective Dose equation, read-out: IC90): > 4000 µM
SMILES: CCCC(=O)OCOC(=O)C=Cc1ccc(OC)c(OC)c1 [DiMeOCOMB, 3,4-Dimethyoxycinnamoyloxymethyl Butyrate]
- % CD11b Cells (HL-60 cells; concentration 50 μM (media control 12.2)): 87.5%
- % CD11b Cells (HL-60 cells; concentration 100 μM (media control 12.2)): 88.6%
- % CD11b Cells (HL-60 cells; concentration 203 μM (media control 12.2)): 90.4%

- IC50 (HL-60; [1]): 2600 µM
- IC90 (HL-60; [2]): > 4000 µM
- IC50 (CFPAC; [3]): 1940 µM
- IC90 (CFPAC; [4]): > 4000 µM
- IC50 (LOX IMVI; [5]): 3360 µM
- IC90 (LOX IMVI; [6]): > 4000 µM
- IC50 (SF-295; [7]): > 4000 µM
- IC90 (SF-295; [8]): > 4000 µM
- IC50 (PC-3; [9]): > 4000 µM
- IC90 (PC-3; [10]): > 4000 µM
- IC50 (MCF7; [11]): > 4000 µM
- IC90 (MCF7; [12]): > 4000 µM
- IC50 (HT29; [13]): 3960 µM
- IC90 (HT29; [14]): > 4000 µM
- IC50 (NCI-H522; [15]): 1980 µM
- IC90 (NCI-H522; [16]): 3820 µM
- IC50 (OVCAR-5; [17]): 3730 µM
- IC90 (OVCAR-5; [18]): > 4000 µM
- IC50 (NCI-H23; [19]): 3270 µM
- IC90 (NCI-H23; [20]): > 4000 µM
SMILES: CC(=Cc1ccccc1)C(=O)O [MeCA, α-methylcinnamic acid, reference compound]

SMILES: CC(Cc1ccccc1)C(=O)O (centres unmarked) [MePPA, 2-methyl-3-phenylpropionic acid, reference compound]
- IC50 (HL-60; Homo sapiens, HL-60): > 4000 µM
- IC90 (HL-60; Homo sapiens, HL-60): > 4000 µM
- IC50 (CFPAC): 3540 µM
- IC90 (CFPAC): > 4000 µM
- IC50 (LOX IMVI; Homo sapiens, LOX IMVI): > 4000 µM
- IC90 (LOX IMVI; Homo sapiens, LOX IMVI): > 4000 µM
- IC50 (SF-295; Homo sapiens, SF-295): > 4000 µM
- IC90 (SF-295; Homo sapiens, SF-295): > 4000 µM
- IC50 (PC-3; Homo sapiens, PC-3): > 4000 µM
- IC90 (PC-3; Homo sapiens, PC-3): > 4000 µM
- IC50 (MCF7; Homo sapiens, MCF7): > 4000 µM
- IC90 (MCF7; Homo sapiens, MCF7): > 4000 µM
- IC50 (HT29; Homo sapiens, HT-29): > 4000 µM
- IC90 (HT29; Homo sapiens, HT-29): > 4000 µM
- IC50 (NCI-H522; Homo sapiens, NCI-H522): > 4000 µM
- IC90 (NCI-H522; Homo sapiens, NCI-H522): > 4000 µM
- IC50 (OVCAR-5; Homo sapiens, OVCAR-5): > 4000 µM
- IC90 (OVCAR-5; Homo sapiens, OVCAR-5): > 4000 µM
- IC50 (NCI-H23; Homo sapiens, NCI-H23): > 4000 µM
- IC90 (NCI-H23; Homo sapiens, NCI-H23): > 4000 µM
